Results: patent publication US4382871A, “Detergent compositions” (Lever Brothers Company, priority 1980, dated 1983)

Experiments:
[1] = acute oral toxicity (LD50) in Webster mice; format: in vivo; conditions: mouse, in vivo, read-out: LD50 (dosage which is lethal for 50% of the mice)
Source text: (§1) As stated above, a particular advantage of the builders of the present invention over the salts of unsubstituted oxydiacetic acid, is their lower toxicity. For example, using Webster mice, the acute oral toxicity data, (LD50), i.e., the dosage in grams per kilogram of body weight which is lethal for 50% of the mice, for two of the preferred embodiments compared to disodium oxydiacetate are as follows: […]

Webster mice = assay: acute oral toxicity (LD50) in Webster mice; format: in vivo; conditions: from LD50
Source text: as §1

[2] = if accidentally swallowed; cited from earlier work

## CC(OCC(=O)[O-])C(=O)[O-].[Na+].[Na+] (stereo not shown)
[1]
  LD50: > 5000 mg/kg
Webster mice
  Remarks (toxicity classification): non-toxic

## CC(OC(C)C(=O)[O-])C(=O)[O-].[Na+].[Na+] (stereo not shown)
[1]
  LD50: > 5000 mg/kg
Webster mice
  Remarks (toxicity classification): non-toxic

## O=C([O-])COCC(=O)[O-].[Na+].[Na+] [reference compound]
[1]
  LD50: 2850 mg/kg
Webster mice
  Remarks (toxicity classification): slightly toxic

## trisodium polyphosphate
[2]
  emetic properties: emetic properties
